The NIST ThermoML archive (doi:10.1016/j.jct.2017.08.024)

Legend:
[1] = for surface tension liquid-gas: wilhelmy plate; for viscosity: 101.33 kPa, Liquid, Concentric cylinders viscometry
[2] = wn = mass fraction of the nth substance listed; settings: for surface tension liquid-gas: wilhelmy plate; for viscosity: 101 kPa, Liquid, Concentric cylinders viscometry

NCCO [2-aminoethan-1-ol]
[1]
Settings	surface tension liquid-gas [mN/m]	viscosity [mPa·s]
303.2 K	47.7	14.47
313.2 K	45.9	9.87
323.2 K	44.2	6.79

NCCO [2-aminoethan-1-ol] + O
[2]
Settings	surface tension liquid-gas, w1 = 0.2 [mN/m]	surface tension liquid-gas, w1 = 0.3 [mN/m]	surface tension liquid-gas, w1 = 0.4 [mN/m]	surface tension liquid-gas, w1 = 1 [mN/m]	viscosity, w1 = 0.2 [mPa·s]	viscosity, w1 = 0.3 [mPa·s]	viscosity, w1 = 0.4 [mPa·s]	viscosity, w1 = 1 [mPa·s]
303.2 K	62.1	59.7	57.8	47.7	1.51	2.11	3.12	14.47
313.2 K	60.4	58.4	56.3	45.9	1.18	1.63	2.29	9.87
323.2 K	58.9	56.4	54.6	44.2	0.97	1.31	1.79	6.79

OCCNCCO [diethanolamine]
[1]
Settings	surface tension liquid-gas [mN/m]	viscosity [mPa·s]
303.2 K	46	381.21
313.2 K	44.1	188.64
323.2 K	42.8	105.98

OCCNCCO [diethanolamine] + O
[2]
Settings	surface tension liquid-gas, w1 = 0.2 [mN/m]	surface tension liquid-gas, w1 = 0.3 [mN/m]	surface tension liquid-gas, w1 = 0.4 [mN/m]	surface tension liquid-gas, w1 = 1 [mN/m]	viscosity, w1 = 0.2 [mPa·s]	viscosity, w1 = 0.3 [mPa·s]	viscosity, w1 = 0.4 [mPa·s]	viscosity, w1 = 1 [mPa·s]
303.2 K	63.3	60.5	58.3	46	1.64	2.57	4.27	381.21
313.2 K	62.1	58.8	56.6	44.1	1.29	1.98	3.01	188.64
323.2 K	59.9	57.4	54.7	42.8	1.03	1.42	2.27	105.98

CO [methanol]
[1]
Settings	surface tension liquid-gas [mN/m]	viscosity [mPa·s]
303.2 K	21.7	0.51
313.2 K	20.9	0.44
323.2 K	20	0.39

O [water]
[1]
Settings	surface tension liquid-gas [mN/m]	viscosity [mPa·s]
303.2 K	71.1	0.8
313.2 K	69.4	0.65
323.2 K	67.7	0.55

O [water] + NCCO
[2], w2 = 0
Settings	surface tension liquid-gas [mN/m]	viscosity [mPa·s]
303.2 K	71.1	0.8
313.2 K	69.4	0.65
323.2 K	67.7	0.55

O [water] + OCCNCCO
[2], w2 = 0
Settings	surface tension liquid-gas [mN/m]	viscosity [mPa·s]
303.2 K	71.1	0.8
313.2 K	69.4	0.65
323.2 K	67.7	0.55
